# B1: Ang-1: human Ang-1 protein (Gibco) (protein, UniProt Q15389 16-498, looked up)
# Angiopoietin-1: HIGCSNQRRSPENSGRRYNRIQHGQCAYTFILPEHDGNCRESTTDQYNTNALQRDAPHVEPDFSSQKLQHLEHVMENYTQWLQKLENYIVENMKSEMAQIQQNAVQNHTATMLEIGTSLLSQTAEQTRKLTDVETQVLNQTSRLEIQLLENSLSTYKLEKQLLQQTNEILKIHEKNSLLEHKILEMEGKHKEELDTLKEEKENLQGLVTRQTYIIQELEKQLNRATTNNSVLQKQQLELMDTVHNLVNLCTKEGVLLKGGKREEEKPFRDCADVYQAGFNKSGIYTIYINNMPEPKKVFCNMDVNGGGWTVIQHREDGSLDFQRGWKEYKMGFGNPSGEYWLGNEFIFAITSQRQYMLRIELMDWEGNRAYSQYDRFHIGNEKQNYRLYLKGHTGTAGKQSSLILHGADFSTKDADNDNCMCKCALMLTGGWWFDACGPSNLNGMFYTAGQNHGKLNGIKWHYFKGPSYSLRSTTMMIRPLDF
# How the values were obtained:
# [1] = system: chick embryos given CoCl2; assay: CoCl2 ischemia / hypoxia study, embryo survival; assay type: in vivo, Gallus gallus domesticus; details: CoCl2 hexahydrate 1.2 mg, 0.54 M
# [2] = system: chick embryos; assay: Embryo survival after dosing on the CAM
# [3] = system: chick chorioallantoic membrane (CAM) vasculature; assay: Chick chorioallantoic membrane; assay type: in vivo, Gallus gallus domesticus; details: 0.75 mg/kg (18.87 µM; antibody 1 mg/mL), n = 2-3, 24 h
molecule,measurement,setting,value
"O.O.O.O.O.O.[Cl-].[Cl-].[Co+2] [CoCl2, CoCl2 hexahydrate]",mortality of embryos treated only with CoCl2,"[1]; 32× LD50, 12 h, n = 4",100%
same,mortality of embryos treated only with CoCl2,"[1]; 32× LD50, 24 h, n = 8",100%
COC(=O)N[C@@H](Cc1ccccc1)C(=O)N[C@@H](Cc1ccc(NS(=O)(=O)O)cc1)c1csc(-c2cccs2)n1 [Razuprotafib],embryo survival,"[2]; dosed at 400 μM, n = 2",50%
same,"lethality, embryos dead / embryos tested",[2]; dosed at 40 mM on the CAM,7/8
B1,"whether CAM results recapitulate those of KU04212, in words",[3],None of these agents gave results consistent with KU04212

# Source: publication PMC11522928 (JACS Au, 2024)
